Data as given in ChEMBL document CHEMBL1157994, “Three new metabolites from marine-derived fungi of the genera coniothyrium and microsphaeropsis” (J Nat Prod, 1999).
The source made the active and inactive calls. The calls are words filed in the database; no cut-off is given here.

How the values were obtained:
Format in all cases: functional, organism-based
[1] = system: Aspergillus pseudoglaucus; assay: Antifungal activity against Eurotium repens at 50 ug by agar diffusion test
Microbotryum violaceum = assay: Antifungal activity against Ustilago violacea at 50 ug by agar diffusion test
Mycotypha microspora = assay: Antifungal activity against Mycotypha microspora at 50 ug by agar diffusion test
Priestia megaterium = assay: […] activity against Bacillus megaterium at 50 ug by agar diffusion test

| Compound | Activity [1] | Activity (Microbotryum violaceum) | Activity (Mycotypha microspora) | Activity (Priestia megaterium) |
| --- | --- | --- | --- | --- |
| COc1cc2c(c(O)c1Cl)C(=O)O[C@H](C)C2 | Active | – | – | – |
| C[C@@H]1Cc2cccc(O)c2C(=O)O1 | Active | – | – | – |
| C[C@H]1OC(=O)c2c(O)cccc2[C@H]1O | Active | Active | – | – |
| O=C1CCC(O)c2cccc(O)c21 (stereo not drawn) | Active | Active | – | – |
| CC(=O)[C@@H](C)c1cc(O)cc(O)c1 | – | Active | Active | – |
| OCc1ccco1 | – | – | – | Active |
| COc1cc(O)c2c(c1)C[C@@H](C)OC2=O | Active | – | – | – |
| C[C@H]1OC(=O)c2c(O)cccc2[C@@H]1O | – | Active | – | – |
| CO[C@]12C=C3C=CC(=O)[C@@H](C)[C@@]3(C)C[C@@]1(O)[C@H](C)CO2 | Active | Active | – | – |
